According to US10081632B2, “Substituted tetrahydropyrido[3′,2′:4,5]pyrrolo[1,2-α]pyrazine-2-carboxamides as RSK inhibitors” (Phoenix Molecular Designs, priority 2016, dated 2018):
“Also recorded” adds a separate entry of the source. Structures can show the parent of a compound that is named as a salt.

Key:
All cell lines [1] = assay: Monolayer growth inhibition, crystal violet assay, range over all cell lines; assay type: cell-based; conditions: 120 h; range of IC50 over all cell lines of the table; read-out: IC50 Values - Crystal Violet (5 Days), Range, All
Source text: (§1) In all instances a single dose was given on day 1 of the experiment. […] Complete (100%) growth suppression was achievable with several of the compounds in multiple different cell lines.

[2] = system: phosphorylated Y-box binding protein-1 (YB-1) at serine 102 (P-YB-1S102); assay: Immunoblotting of cell signalling, loss of P-YB-1 in MDA-MB-231 cells; conditions: MDA-MB-231 cells, 0.01-1 uM, 96 hrs
Experimental: Following desired experimental conditions, breast cancer cell lines grown and treated in 6 well plates or 100 mm culture dishes (Grenier Bio-One) were placed on ice and the supernatant from each well was removed and the cells were washed in cold PBS. Following removal of PBS, cells were exposed to radioimmunoprecipitation assay (RIPA) buffer (50 mM Tris-HCl (pH 8), 150 mM NaCl, 1% NP-40, 0.5% sodium deoxycholate, 0.1% SDS; Fisher Scientific) supplemented with 1% phosphatase inhibitor (Fisher Scientific) and 1% protease inhibitor (Fisher Scientific) for 10 minutes. Samples were transferred to eppendorf tubes, vortexed and then centrifuged at 14 000 rpm for 10 minutes. Supernatants were collected as whole cell lysates.
To begin, the protein content of the lysates was measured using the Bicinchoninic Acid (BCA) Protein Assay Kit (Pierce), which included a protein standard curve generated with bovine serum albumin. Appropriate volumes of samples and loading buffer (50 mM Tris-HCl (pH 6.8), 2% SDS, 10% glycerol, 1% j-mercaptoethanol, 12.5 mM EDTA, 0.02% bromophenol blue) were mixed, ensuring that equal amounts of protein were loaded. For the majority of experiments in this study, 30 μg of protein per well was loaded. Samples were then resolved on SDS-PAGE (polyacrylamide gel electrophoresis) using various percentages of acrylamide gels (8%-12%), depending on the proteins of interest. SDS-PAGE was run in SDS running buffer (25 mM Tris, 192 mM glycine, 0.1% SDS) and then transferred to nitrocellulose membranes (Bio-Rad) in transfer buffer (48 mM Tris, 39 mM glycine, 20% (v/v) methanol) at 100 volts for 90 minutes at room temperature. Immunoblots were then blocked in 5% skim milk in tris-buffered saline with 0.1% Tween-20 (TBS-T; 50 mM Tris-HCl, pH 7.5, 150 mM NaCl, 0.1% (v/v) Tween-20 (Fisher Scientific)) for 1 to 2 hours. Immunoblots were then incubated with selected primary antibodies diluted in TBS-T with 0.1% gelatin (Bio-Rad) and 0.05% sodium azide (Alfa Aesar) overnight. Following washes with TBT-T 4 times for 8 to 10 minutes, immunoblots were incubated with appropriate secondary antibodies conjugated to horseradish peroxidise (Cell Signalling Technology) diluted in TBS-T plus 5% skim milk at a ratio of 1:5000 for 2 hours at room temperature. After an additional round of washes in TBS-T, immunoblots were exposed to combined enhanced chemiluminescence (ECL) reagents (Fisher Scientific) for 1 minute and developed using ChemiDoc MP Imaging System (Bio-Rad). For certain immunoblots, bands of proteins of interest were scanned and band intensity ratios were determined by densitometric analysis (ImageJ). […] Total YB-1 was used as a loading control (1:5000 Abcam). […] To assess whether cells are actively undergoing cell death, the activity of poly ADP ribose polymerase (PARP) (1:1000 CST) was also measured using the immunoblotting method.

CD34+ cells = assay: Colony forming unit hematopoietic stem cell assay; assay type: cell-based, human; conditions: for IC50: Homo sapiens, Hematopoietic stem cell, CD34+ cells from peripheral blood, read-out: CD34+ (PB) IC50; for Therapeutic Window: ratio IC50 against CD34+ cells and MDA-MB-231 cells (SA)
SUM149 cells [3] = assay: Monolayer growth inhibition, crystal violet assay; assay type: cell-based; conditions: Homo sapiens; SUM149 (TNBC, BRCA Mutant), 5 days, single dose on day 1
Source text: (§2) In all instances a single dose was given on day 1 of the experiment.

PC3 cells [4] = assay: Monolayer growth inhibition, crystal violet assay; assay type: cell-based; conditions: Homo sapiens, PC-3; PC3 (Prostate), 5 days, single dose on day 1
Source text: as §2

HCC1143 cells [5] = assay: Monolayer growth inhibition, crystal violet assay; assay type: cell-based; conditions: Homo sapiens; HCC1143 (TNBC), 5 days, single dose on day 1
Source text: as §2

MDA-MB-435 cells [6] = assay: Monolayer growth inhibition, crystal violet assay; assay type: cell-based; conditions: Homo sapiens; MDA-MB-435 (Melanoma), 5 days, single dose on day 1
Source text: as §2

MDA-MB-231 cells [7] = assay: Monolayer growth inhibition, crystal violet assay; assay type: cell-based; conditions: Homo sapiens; MDA-MB-231 (TNBC), 5 days, single dose on day 1
Source text: as §2

4T1 cells [8] = assay: Monolayer growth inhibition, crystal violet assay; assay type: cell-based; conditions: Mus musculus; 4T1 (TNBC), 5 days, single dose on day 1
Source text: as §2

SUM149-PTXR cells [9] = assay: Monolayer growth inhibition, crystal violet assay; assay type: cell-based; conditions: Homo sapiens; SUM149-PTXR (TNBC, BRCA Mutant), 5 days, single dose on day 1
Source text: as §2

MDA-MB-231 cells [10] = assay: Soft agar growth inhibition assay; assay type: cell-based; conditions: Homo sapiens
4T1 cells [11] = assay: Soft agar growth inhibition assay; assay type: cell-based; conditions: Mus musculus
T47D cells [12] = assay: Monolayer growth inhibition, Alamar blue assay; assay type: cell-based, Human; conditions: Homo sapiens; T47D (ER/PR), 5 days, single dose on day 1
Source text: as §2

SUM149-PTXR cells [13] = assay: Monolayer growth inhibition, Alamar blue assay; assay type: cell-based, Human; conditions: Homo sapiens; SUM149-PTXR (TNBC, BRCA Mutant), 5 days, single dose on day 1
Source text: as §2

SUM149 cells [14] = assay: Monolayer growth inhibition, Alamar blue assay; assay type: cell-based; conditions: Homo sapiens; SUM149 (TNBC, BRCA Mutant), 5 days, single dose on day 1
Source text: as §2

HCC1937 cells [15] = assay: Monolayer growth inhibition, Alamar blue assay; assay type: cell-based; conditions: Homo sapiens; HCC1937 (TNBC, BRCA Mutant), 5 days, single dose on day 1
Source text: as §2

PC3 cells [16] = assay: Monolayer growth inhibition, Alamar blue assay; assay type: cell-based; conditions: Homo sapiens, PC-3; PC3 (Prostate), 5 days, single dose on day 1
Source text: as §2

HCC1143 cells [17] = assay: Monolayer growth inhibition, Alamar blue assay; assay type: cell-based; conditions: Homo sapiens; HCC1143 (TNBC), 5 days, single dose on day 1
Source text: as §2

MDA-MB-468 cells [18] = assay: Monolayer growth inhibition, Alamar blue assay; assay type: cell-based; conditions: Homo sapiens; MDA-MB-468 (TNBC), 5 days, single dose on day 1
Source text: as §2

MDA-MB-435 cells [19] = assay: Monolayer growth inhibition, Alamar blue assay; assay type: cell-based; conditions: Homo sapiens; MDA-MB-435 (Melanoma), 5 days, single dose on day 1
Source text: as §2

MDA-MB-231 cells [20] = assay: Monolayer growth inhibition, Alamar blue assay; assay type: cell-based; conditions: Homo sapiens; MDA-MB-231 (TNBC), 5 days, single dose on day 1
Source text: as §2

JIMT-1 cells [21] = assay: Monolayer growth inhibition, Alamar blue assay; assay type: cell-based; conditions: Homo sapiens; JIMT-1 (HER2), 5 days, single dose on day 1
Source text: as §2

4T1 cells [22] = assay: Monolayer growth inhibition, Alamar blue assay; assay type: cell-based; conditions: Mus musculus; 4T1 (TNBC), 5 days, single dose on day 1
Source text: as §2

All cell lines [23] = assay: Monolayer growth inhibition, Alamar blue assay, range over all cell lines; assay type: cell-based; conditions: 120 h; range of IC50 over all cell lines of the table; read-out: IC50 Values - Alamar Blue (5 Days), Range, All
Source text: as §2

MDA-MB-468 cells [24] = assay: Soft agar growth inhibition assay; assay type: cell-based, Human; conditions: Homo sapiens; MDA-MB-468 (TNBC), 14-22 days
HCC1937 cells [25] = assay: Monolayer growth inhibition, crystal violet assay; assay type: cell-based; conditions: Homo sapiens; HCC1937 (TNBC, BRCA Mutant), 5 days, single dose on day 1
Source text: as §1

T47D cells [26] = assay: Monolayer growth inhibition, crystal violet assay; assay type: cell-based; conditions: Homo sapiens; T47D (ER/PR), 5 days, single dose on day 1
Source text: as §1

MDA-MB-468 cells [27] = assay: Monolayer growth inhibition, crystal violet assay; assay type: cell-based; conditions: Homo sapiens; MDA-MB-468 (TNBC), 5 days, single dose on day 1
Source text: as §1

JIMT-1 cells [28] = assay: Monolayer growth inhibition, crystal violet assay; assay type: cell-based; conditions: Homo sapiens; JIMT-1 (HER2), 5 days, single dose on day 1
Source text: as §1

MDA-MB-231 cells [29] = assay: Immuno-oncology gene expression (HLA-DRA, CIITA, CD274 mRNA); assay type: cell-based, Human; conditions: Compound 16 2 or 4 uM, Compound 18 1, 2, or 4 uM
Source text: A key feature of cancer is low immunogenicity. This can occur by several mechanisms that allow the cells to escape immune recognition. […] HLA-DRA is a member of MHC-II genes and CIITA is the master regulator of MHC II transcription. Thus it was surprising that CIITA, which would be expected to regulate MHC II gene expression, was not altered by RSK inhibition. […] HLA-DRA is important for immune recognition while PD-L1 is involved in immune checkpoints.

[30] = Solubility assessment, 20 mg/ml solution; assay type: physicochemical; conditions: hydrochloride salt
How it was run: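 Compounds from 100 mM DMSO stocks diluted to 20 mg/ml in DMEM with FBS and penicillin/streptomycin, vortexed and checked visually for precipitate. One compound instead diluted to 20 mg/ml in phosphate-buffered saline, solution pH 2.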

[31] = system: P-YB-1 in MDA-MB-231 xenografts; assay: Pharmacodynamics, P-YB-1 signalling in MDA-MB-231 xenograft tumors (immunoblotting); conditions: 100 mg/kg BID PO for three days
Experimental: Following desired experimental conditions, breast cancer cell lines grown and treated in 6 well plates or 100 mm culture dishes (Grenier Bio-One) were placed on ice and the supernatant from each well was removed and the cells were washed in cold PBS. Following removal of PBS, cells were exposed to radioimmunoprecipitation assay (RIPA) buffer (50 mM Tris-HCl (pH 8), 150 mM NaCl, 1% NP-40, 0.5% sodium deoxycholate, 0.1% SDS; Fisher Scientific) supplemented with 1% phosphatase inhibitor (Fisher Scientific) and 1% protease inhibitor (Fisher Scientific) for 10 minutes. Samples were transferred to eppendorf tubes, vortexed and then centrifuged at 14 000 rpm for 10 minutes. Supernatants were collected as whole cell lysates. For mouse tumour tissues, each sample was place in a 35 mm culture dish with complete RIPA lysis buffer. […]
To begin, the protein content of the lysates was measured using the Bicinchoninic Acid (BCA) Protein Assay Kit (Pierce), which included a protein standard curve generated with bovine serum albumin. […] For certain immunoblots, bands of proteins of interest were scanned and band intensity ratios were determined by densitometric analysis (ImageJ). […] To assess whether cells are actively undergoing cell death, the activity of poly ADP ribose polymerase (PARP) (1:1000 CST) was also measured using the immunoblotting method.
Cell signalling was evaluated by immunoblotting. […]

[32] = MDA-MB-231, growth in soft agar (SA), read-out: MDA-MB-231 IC50 (SA)
[33] = MDA-MB-231 (TNBC), 14-22 days, read-out: IC50 Values - Soft Agar (14-22 Days)

SMILES | IC50 (CD34+ cells) | IC50 (MDA-MB-231 cells [10]; [32]) | IC50 (MDA-MB-231 cells [10]; [33]) | IC50 (T47D cells [12]) | IC50 (SUM149-PTXR cells [13]) | IC50 (SUM149 cells [14]) | IC50 (HCC1937 cells [15]) | IC50 (PC3 cells [16]) | IC50 (HCC1143 cells [17]) | IC50 (MDA-MB-435 cells [19]) | IC50 (JIMT-1 cells [21]) | IC50 (HCC1937 cells [25]) | IC50 (T47D cells [26]) | IC50 (MDA-MB-468 cells [27]) | IC50 (JIMT-1 cells [28]) | also measured
C[C@@H]1CNC(=O)c2cc3ccc(C(=O)Nc4cnn(Cc5cccc(N)c5)c4)nc3n21 [Compound 16, (R)—N-(1-(3-aminobenzyl)-1H-pyrazol-4-yl)-9-methyl-6-oxo-6,7,8,9-tetrahydropyrido[3′,2′:4,5]pyrrolo[1,2-a]pyrazine-2-carboxamide] | > 20 µM | 0.2 µM | 0.2 ± 0.1 µM | 4.7 ± 1.7 µM | 2.5 ± 0.4 µM | 3.4 ± 1.8 µM | 17.4 ± 3 µM | 6.6 ± 2.3 µM | 7 ± 3 µM | 0.9 ± 0.5 µM | 16.3 ± 1 µM | 12 ± 5.3 µM | 3.8 ± 0.7 µM | 1.9 ± 0.3 µM | 13.3 ± 2.4 µM | IC50 (All cell lines [1]): 1.2 to 13.3 µM; Loss of P-YB-1 [2]: dose dependent loss of P-YB-1; Therapeutic Window (CD34+ cells): >100X; IC50 (SUM149 cells [3]): 2.8 ± 0.9 µM; IC50 (PC3 cells [4]): 3.7 ± 1.3 µM; IC50 (HCC1143 cells [5]): 5 ± 1.1 µM; IC50 (MDA-MB-435 cells [6]): 1.2 ± 0.6 µM; IC50 (MDA-MB-231 cells [7]): 2.7 ± 1.3 µM; IC50 (4T1 cells [8]): 4.5 ± 0.8 µM; IC50 (SUM149-PTXR cells [9]): 3.5 ± 1.2 µM; IC50 (4T1 cells [11]; 240 h, 4T1, 10 days, read-out: IC50 Values, 10 Days, Soft Agar): 3.3 µM; IC50 (4T1 cells [11]; 4T1 (TNBC), 14-22 days, read-out: IC50 Values - Soft Agar (14-22 Days)): 3.5 ± 0.3 µM; IC50 (MDA-MB-468 cells [18]): 2.7 ± 0.5 µM; IC50 (MDA-MB-231 cells [20]): 8.7 ± 1.8 µM; IC50 (4T1 cells [22]): 5.4 ± 0.9 µM; IC50 (All cell lines [23]): 0.9 to 17.4 µM; IC50 (MDA-MB-468 cells [24]): 1.1 ± 0.3 µM; CD274 (gene encoding PD-L1) levels (MDA-MB-231 cells [29]): reduced levels of CD274; HLA-DRA mRNA (MDA-MB-231 cells [29]): elevated levels of HLA-DRA mRNA; mRNA expression of CIITA (MDA-MB-231 cells [29]): little effect
C[C@@H]1CNC(=O)c2cc3ccc(C(=O)Nc4cnn(Cc5ccc(N)cc5)c4)nc3n21 [Compound 25, (R)—N-(1-(4-aminobenzyl)-1H-pyrazol-4-yl)-9-methyl-6-oxo-6,7,8,9-tetrahydropyrido[3′,2′:4,5]pyrrolo[1,2-a]pyrazine-2-carboxamide hydrochloride salt] | > 20 µM | 0.2 µM | 0.2 ± 0.1 µM | 8.9 ± 0.8 µM | 5.2 ± 4.2 µM | 10.4 ± 3.5 µM | 13.7 ± 3.8 µM | 8.5 ± 0.8 µM | 5.1 ± 0.3 µM | 0.9 ± 0.1 µM | 19.9 ± 6.5 µM | 8.4 ± 1.9 µM | 3.1 ± 0.1 µM | 2 ± 0.4 µM | 15.2 ± 2.6 µM | Therapeutic Window (CD34+ cells; hydrochloride salt): >100X; Solubility, 20 mg/ml Solution ([30]; 100 mM in DMSO diluted in DMEM growth media to 20 mg/ml): Soluble; also recorded: superior solubility; pH of 20 mg/ml solution ([30]; DMSO stock diluted in DMEM, pH test strips): 2; Tumors with reduced cell signaling through loss of P-YB-1 [31]: 3/3
